Experimental data taken from US10351539B2, “Macrocyclic complexes, their process of preparation and use as PET imaging agents” (INSTITUT NATIONAL DE LA SANTE ET DE LA RECHERCHE MEDICALE …, priority 2014, dated 2019).
“Also recorded” adds a separate entry of the source.

Columns and labels:
[1] = Study 2: biodistribution in healthy New Zealand rabbits (gamma counting of dissected organs); assay type: in vivo; settings: for Uptake ratio Cartilage/Bone / Uptake ratio Cartilage/Muscle / Articular Cartilage / Bile / Blood / Bone / Bone Marrow / Kidney / Liver / Lung / Muscle / Spleen / Thyroid / Urine: i.v.
Method: Biodistribution were determined in 36 healthy New Zealand rabbits (18 males and 18 females, 14 weeks old, 3.5 kg weight, Charles River, France), being randomly divided into two groups: • One group receiving ^99mTc-NTP 15-5: 18±3 MBq/animal for biodistribution; • One group receiving ^64Cu-2: 17±4 MBq/animal for biodistribution.
The compounds were i.v. administered to anesthetized animals (ketamine/xylazine by intramuscular route) in the marginal ear vein.
At selected time points after injection (15 min, 1 h, 3 h, 6 h, 20 h after injection), animals (3 animals/time point/compound) were sacrificed by a lethal i.v. dose of pentobarbital. Organs of interest were dissected, weighed and their radioactivity measured using a gamma counter (Model 1480 Wizard, Perkin Elmer Life Sciences, Boston, USA). After radioactive decay correction, results were expressed for each organ as % injected dose per gram (% ID/g) and averaged per group and per time point.

[2] = Biodistribution in healthy and SRC bearing rats at 1 h after i.v. injection of radiolabelled compounds; assay type: in vivo; settings: mean ± SD (n = 3)
Method: Quantitative biodistribution of radiolabelled compounds was determined in rats: healthy animals as well as rats with primary grade II orthotopic chondrosarcoma at stage Day-30 after induction. The chondrosarcoma model was the Swarm Rat Chondrosarcoma model (SRC) implanted in paratibial location. Radiolabelled compounds (5-10 Mbq/animal) were i.v. administered in the caudal vein of animals being anesthetized of mixture of ketamine (58 mg/kg i.p.) (Imalgéne 500®) and xylazine (6 mg/kg i.p.) (Rompun® 2%, Bayer, France). One hour after injection, animals were then sacrificed by CO2 inhalation, dissected and organs of interest removed, weighed and their radioactivity counted using a gamma counter (Model 1480 Wizard, Perkin Elmer Life Sciences, Boston, USA). Organs collected were blood, muscle, knee, kidneys, liver, thoracic ribs, bladder for both healthy and chondrosarcoma bearing rats. For SRC animals, tumour was also sampled. After radioactive decay correction, results were expressed for each organ as % injected dose per gram (% ID/g) and averaged per group.

CC[N+](CC)(CC)CCCN1CCNCCNCCNCCNCC1.[64Cu+2] [^64Cu-2, [^64Cu]—N,N,N-Triethyl-3-(1,4,7,10,13-pentaazacyclopentadecan-1-yl)propan-1-aminium copper(II)]
Accumulation in kidneys compared to ^99mTc-NTP 15-5 [1]: significantly higher | Cartilage/muscle and cartilage/Bone ratios compared to ^99mTc-NTP 15-5 [1]: higher | Duration of liver accumulation compared to ^99mTc-NTP 15-5 [1]: shorter | Accumulation in cartilage (onset) ([1]; as early as 15 min p.i.): rapidly accumulate | Uptake into the cartilages compared to ^99mTc-NTP 15-5 ([1]; each time investigated): faster and higher uptake; also recorded: higher levels | Uptake ratio Cartilage/Bone ([1]; 15 min): 120 | Uptake ratio Cartilage/Muscle ([1]; 15 min): 282 | Articular Cartilage ([1]; 15 min after injection): 8.46 ± 6.18 % ID/g | Bile ([1]; 15 min after injection): 0.07 ± 0.04 % ID/g | Blood ([1]; 15 min after injection): 0.31 ± 0.17 % ID/g | Bone ([1]; 15 min after injection): 0.07 ± 0.02 % ID/g | Bone Marrow ([1]; 15 min after injection): 0.08 ± 0.04 % ID/g | Kidney ([1]; 15 min after injection): 0.65 ± 0.47 % ID/g | Liver ([1]; 15 min after injection): 0.11 ± 0.03 % ID/g | Lung ([1]; 15 min after injection): 0.23 ± 0.14 % ID/g | Muscle ([1]; 15 min after injection): 0.03 ± 0.02 % ID/g | Spleen ([1]; 15 min after injection): 0.11 ± 0.08 % ID/g | Thyroid ([1]; 15 min after injection): 0.11 ± 0.08 % ID/g | Urine ([1]; 15 min after injection): 1.51 ± 2.22 % ID/g | Uptake ratio Cartilage/Bone ([1]; 1 h): 484 | Uptake ratio Cartilage/Muscle ([1]; 1 h): 484 | Articular Cartilage ([1]; 1 h after injection): 4.81 ± 1.16 % ID/g | Bile ([1]; 1 h after injection): 0.03 ± 0.02 % ID/g | Blood ([1]; 1 h after injection): 0.08 ± 0.02 % ID/g | Bone ([1]; 1 h after injection): 0.01 ± 0.00 % ID/g | Bone Marrow ([1]; 1 h after injection): 0.03 ± 0.01 % ID/g | Kidney ([1]; 1 h after injection): 0.26 ± 0.07 % ID/g | Liver ([1]; 1 h after injection): 0.04 ± 0.01 % ID/g | Lung ([1]; 1 h after injection): 0.07 ± 0.02 % ID/g | Muscle ([1]; 1 h after injection): 0.01 ± 0.00 % ID/g | Spleen ([1]; 1 h after injection): 0.03 ± 0.01 % ID/g | Thyroid ([1]; 1 h after injection): 0.03 ± 0.01 % ID/g | Urine ([1]; 1 h after injection): 1.69 ± 2.14 % ID/g | Articular Cartilage ([1]; 3 h after injection): 2.31 ± 0.32 % ID/g | Bile ([1]; 3 h after injection): 0.11 ± 0.17 % ID/g | Blood ([1]; 3 h after injection): 0.02 ± 0.00 % ID/g | Bone ([1]; 3 h after injection): 0.01 ± 0.00 % ID/g | Bone Marrow ([1]; 3 h after injection): 0.01 ± 0.00 % ID/g | Kidney ([1]; 3 h after injection): 0.22 ± 0.01 % ID/g | Liver ([1]; 3 h after injection): 0.02 ± 0.00 % ID/g | Lung ([1]; 3 h after injection): 0.03 ± 0.00 % ID/g | Muscle ([1]; 3 h after injection): 0.00 ± 0.00 % ID/g | Spleen ([1]; 3 h after injection): 0.02 ± 0.00 % ID/g | Thyroid ([1]; 3 h after injection): 0.04 ± 0.05 % ID/g | Urine ([1]; 3 h after injection): 0.92 ± 0.63 % ID/g | Articular Cartilage ([1]; 6 h after injection): 1.00 ± 1.02 % ID/g | Bile ([1]; 6 h after injection): 0.02 ± 0.02 % ID/g | Blood ([1]; 6 h after injection): 0.02 ± 0.02 % ID/g | Bone ([1]; 6 h after injection): 0.00 ± 0.00 % ID/g | Bone Marrow ([1]; 6 h after injection): 0.01 ± 0.01 % ID/g | Kidney ([1]; 6 h after injection): 0.26 ± 0.14 % ID/g | Liver ([1]; 6 h after injection): 0.02 ± 0.02 % ID/g | Lung ([1]; 6 h after injection): 0.02 ± 0.02 % ID/g | Muscle ([1]; 6 h after injection): 0.00 ± 0.00 % ID/g | Spleen ([1]; 6 h after injection): 0.02 ± 0.02 % ID/g | Thyroid ([1]; 6 h after injection): 0.00 ± 0.00 % ID/g | Urine ([1]; 6 h after injection): 6.90 ± 7.93 % ID/g | Articular Cartilage ([1]; 20 h after injection): 0.10 ± 0.02 % ID/g | Bile ([1]; 20 h after injection): 0.01 ± 0.00 % ID/g | Blood ([1]; 20 h after injection): 0.00 ± 0.00 % ID/g | Bone ([1]; 20 h after injection): 0.00 ± 0.00 % ID/g | Bone Marrow ([1]; 20 h after injection): 0.00 ± 0.00 % ID/g | Kidney ([1]; 20 h after injection): 0.06 ± 0.01 % ID/g | Liver ([1]; 20 h after injection): 0.00 ± 0.00 % ID/g | Lung ([1]; 20 h after injection): 0.00 ± 0.00 % ID/g | Muscle ([1]; 20 h after injection): 0.00 ± 0.00 % ID/g | Spleen ([1]; 20 h after injection): 0.01 ± 0.00 % ID/g | Thyroid ([1]; 20 h after injection): 0.00 ± 0.00 % ID/g | Urine ([1]; 20 h after injection): 0.25 ± 0.22 % ID/g | Urinary elimination ([1]; indicated by accumulation in kidneys): high/rapid | In vivo stability (release of ^64Cu from transchelation or transmetalation negligible) ([1]; inferred from liver uptake): stable | Tumor ([2]; SRC (Swarm Rat Chondrosarcoma) bearing rats): 3.5 ± 0.5 % ID/g | Articular Cartilage ([2]; healthy and SRC bearing rats): 2.6 ± 1.1 % ID/g | Bladder ([2]; healthy and SRC bearing rats): 62.2 ± 17.6 % ID/g | Blood ([2]; healthy and SRC bearing rats): 0.1 ± 0.05 % ID/g | Kidney ([2]; healthy and SRC bearing rats): 16.4 ± 6.6 % ID/g | Muscle ([2]; healthy and SRC bearing rats): 0.4 ± 0.3 % ID/g
